Tests used:
Format in all cases: cell-based, Chinese hamster
[1] = test system: DTE cells; assay: Bezafibrate treatment of DTE CHO cells: target gene induction, production and fitness
Method: (§1) Antibiotic-selected DTE (Infliximab) cells were stably transfected with mouse PPARα or with an empty vector. Analyses of gene expression, IgG titer and cell viability were performed comparing DTE clone with empty vector cell and PPARα overexpressing cells (PPARα_OE). (A) Gene expression of PPARα targets, PPARα and IgG (qRT-PCR) in none-treated cells or cells treated with Bezafibrate (BEZA). Bezafibrate was added at 10 mM at day 1 of the fed-batch culture. RNA was extracted at day 6 of the fed-batch culture. Infliximab IgG specific productivity (B) and cell viability (C) are illustrated in non-selective or B5-starving media. Cells were cultured in 12 well-plate at a starting amount of 2*105 cell/ml in non-selective or B5 starving medium for 5 days, then transferred in non-selective media. IgG specific productivity (PCD) was then measured over 3 days of culture in non-selective media. Each measurement is the result of three independent cultures. Statistics: * P≤0.05 and ** P≤0.02 (t-test; 1 sided; unpaired sample, unequal variance).
(§2) Growth and IgG secretion performances in fed-batch culture were performed according to Le Fourn et al., 2013, with the following changes: IgG producing clone stably transfected for the expression of MIPs were seeded at 300′000 cells/ml in 5 mL culture medium in falcon of 50 mL. Viable cell density and IgG titer (g/L) were evaluated after 3, 6, 8, 9, 10 and 13 days.
(§3) For quantitative PCR (qPCR) analysis, total RNA was extracted from […] and reverse transcribed into cDNA using the GoScript Reverse transcription System (Promega). Transcripts accumulation was quantified by qPCR using the LightCycler© 480 SYBR Green I Master and the LightCycler 480 II instrument (Roche). Transcript levels were normalized to that of SDHA housekeeping gene.

[2] = test system: PPAR target genes; assay: RT-qPCR of candidate / PPAR target gene expression in ETE (Trastuzumab) clone in fed-batch culture; conditions: 10 mM Bezafibrate added after 3 days of fed-batch, RT-qPCR at day 6 (FIG. 6A)
Method: (§4) (A) ETE clone (Trastuzumab) non-treated (Control) or treated with 10 mM Bezafibrate PPARα ligand after […] of fed-batch culture (+Bezafibrate). Candidate gene expression were quantified at day 6 by RT-qPCR. (B) ETE cells treated with 10 mM Bezafibrate after 1-day fed-batch, and IgG titer measured after 10 days. Data are means±SE from four independent experiments. * P≤0.05 and ** P≤0.02 (t-test; 2 sided; unpaired sample, unequal variance).
as §2, §3

[3] = test system: ETE (Trastuzumab) cells; assay: Fed-batch culture of ETE (Trastuzumab) CHO cells: IgG production and cell survival
Method: as §4
The percentage of fluorescent cells and the fluorescence intensity of GFP positive cells were determined by flow cytometry analysis using a CyAn ADP flow cytometer (BECKMAN COULTER). Immunoglobulin concentrations in cell culture supernatants were measured by sandwich ELISA. GFP, IgG1Lc, IgG1Hc and MIP transcript accumulation was confirmed by RT-quantitative PCR assays before analyses.
as §2

[4] = test system: exogenous PPARα; assay: DTE (Infliximab) cells stably overexpressing mouse PPARα (PPARα_OE): gene expression (qRT-PCR) and IgG productivity
Method: as §1
as §3, with “Transcript levels were normalized to that of SDHA housekeeping gene.” left out

In the case of `CC(C)(Oc1ccc(CCNC(=O)c2ccc(Cl)cc2)cc1)C(=O)O` [Bezafibrate, 2-[4-[2-(4-chlorobenzamido)ethyl]phenoxy]-2-methylpropanoic acid], the “cell production and fitness” value [1] is reported as “the cell production and fitness weren't improved”, the “induction of PPAR target genes” value [1] is reported as “the same target genes are induced” and the “cell division, viability and recombinant protein production” value ([1]; increased bezafibrate concentration, data not shown) is reported as “doesn't show any beneficial effect”. For the same compound, the “expression of B5-target Slc22a14” value [2] was “activated”, the “expression of Cyp4a14” value [2] was “not induced” and the “expression of PPAR target genes HmgCs2, Acot1, DBI1, AscI1 and RXR nuclear receptor” value [2] was “induces PPAR target genes”. The “recombinant protein (IgG titer) at the end of the fed-batch” value ([3]; ETE cells, 10 mM Bezafibrate added at day 1 of fed-batch, IgG titer after 10 days (FIG. 6B)) was “beneficial for recombinant protein”, the “cell division, viability and recombinant protein production” value ([3]; ETE cells, increased bezafibrate concentration, data not shown) was “doesn't show any beneficial effect” and the “cell survival under starvation stress during the fed-batch process” value ([3]; addition at day 3 of the fed-batch, data not shown) was “significantly improved cell survival”. The IgG production ([3]; addition at day 3 of the fed-batch, normal fed-batch conditions of feeding) was “no improvement of IgG production”, the IgG productivity ([4]; PPARα_OE DTE (Infliximab) cells with bezafibrate (FIG. 7B)) was “higher IgG productivity” and the “transcription of PPAR-target genes, RXR nuclear factor and IgG light and heavy chains” value ([4]; PPARα_OE DTE (Infliximab) cells, Bezafibrate 10 mM at day 1, RNA at day 6 of fed-batch (FIG. 7A)) was “induced the transcription of PPAR-target genes”.

Source: patent US20230193341A1, “EXPRESSION SYSTEMS, RECOMBINANT CELLS AND USES THEREOF” (Selexis SA, priority 2018, published 2023)
